Results: the supplement of paper PMC10307832

What follows are cell lines tested with COc1cccc2c1C(=O)c1c(O)c3c(c(O)c1C2=O)C[C@@](O)(C(=O)CO)C[C@@H]3O[C@H]1C[C@H](N)[C@H](O)[C@H](C)O1 [Doxorubicin] + NC(=O)Nc1cc(-c2cccc(F)c2)sc1C(=O)N[C@H]1CCCNC1 [AZD7762] (partner 0.2 µM) (assay: relative viability (nuclei count vs DMSO), 5 days (fraction); higher = more cells survive). Settings: first compound 0.1 µM.
Summary of the method: (§1)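 Lung cancer cell lines were pin-tool dosed in 1536-well plates on the day after seeding, with either a lone drug or a fixed anchor-drug dose plus five library-drug doses (not always all listed) in √10 steps. Nuclei were counted on 4× images after 5 days. Relative viability is the ratio of treated-well to vehicle-well nuclei counts, with each value a median of duplicate plates.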

Row | Cell Line | relative viability
1 | HCC-15 | 1.35

These cell lines were tested with COc1cccc2c1C(=O)c1c(O)c3c(c(O)c1C2=O)C[C@@](O)(C(=O)CO)C[C@@H]3O[C@H]1C[C@H](N)[C@H](O)[C@H](C)O1 [Doxorubicin] + CS(=O)(=O)N1CCN(Cc2cc3nc(-c4cccc5[nH]ncc45)nc(N4CCOCC4)c3s2)CC1 [Pictilisib] (partner 1 µM) in the same assay as above. Settings: first compound 0.001 µM.
Summary of the method: as §1

Row | Cell Line | relative viability
2 | NCI-H358 | 0.441
3 | NCI-H322M | 0.589
4 | HCC-78 | 0.208
5 | LXF-289 | 0.698
6 | BEN | 0.7
7 | HARA | 0.444
8 | HCC-827 | 0.851
9 | A-427 | 0.664
10 | PC-3 [JPC-3] | 0.774
11 | NCI-H1755 | 0.342
12 | NCI-H650 | 0.989
13 | NCI-H3122 | 0.507
14 | NCI-H441 | 0.434
15 | NCI-H1395 | 0.682
16 | 201T | 0.666
17 | NCI-H1975 | 0.292
18 | HOP-62 | 0.315
19 | NCI-H1355 | 0.179
20 | NCI-H838 | 0.394
21 | NCI-H1666 | 0.376
22 | EPLC-272H | 0.308
23 | NCI-H2347 | 0.563
24 | NCI-H1915 | 0.854
25 | NCI-H1437 | 0.541
26 | NCI-H460 | 0.246
27 | NCI-H1792 | 0.325
28 | NCI-H2085 | 0.509
29 | HCC-15 | 0.663

Same assay, conditions: first compound 0.003162 µM

Row | Cell Line | relative viability
30 | NCI-H358 | 0.349
31 | NCI-H322M | 0.448
32 | HCC-78 | 0.216
33 | LXF-289 | 0.772
34 | BEN | 0.509
35 | HARA | 0.439
36 | HCC-827 | 1.01
37 | LOU-NH91 | 0.516
38 | A-427 | 0.818
39 | NCI-H647 | 0.38
40 | PC-3 [JPC-3] | 0.842
41 | NCI-H1755 | 0.508
42 | NCI-H650 | 0.886
43 | NCI-H3122 | 0.62
44 | NCI-H441 | 0.521
45 | NCI-H1395 | 0.623

Row | Cell Line | relative viability
46 | 201T | 0.648
47 | NCI-H1975 | 0.3
48 | HOP-62 | 1.03
49 | NCI-H2405 | 0.432
50 | NCI-H1355 | 0.565
51 | NCI-H838 | 0.424
52 | NCI-H1666 | 0.37
53 | EPLC-272H | 0.288
54 | NCI-H2347 | 0.598
55 | NCI-H1915 | 1.01
56 | NCI-H1437 | 0.443
57 | NCI-H460 | 0.393
58 | NCI-H1792 | 0.287
59 | NCI-H2085 | 0.537
60 | HCC-15 | 0.759

Same assay, conditions: first compound 0.01 µM

Row | Cell Line | relative viability
61 | NCI-H358 | 0.273
62 | NCI-H322M | 0.546
63 | HCC-78 | 0.219
64 | LXF-289 | 0.716
65 | BEN | 0.546
66 | HARA | 0.434
67 | HCC-827 | 0.985
68 | LOU-NH91 | 0.564
69 | A-427 | 0.723
70 | NCI-H647 | 0.46
71 | PC-3 [JPC-3] | 0.758
72 | NCI-H1755 | 0.451
73 | NCI-H650 | 0.867
74 | NCI-H3122 | 0.566
75 | NCI-H441 | 0.404
76 | NCI-H1395 | 0.648
77 | 201T | 0.658
